# Measured values published in ChEMBL document CHEMBL1131109, “Modeling RNA-ligand interactions: the Rev-binding element RNA-aminoglycoside complex” (1998).
# How the values were obtained:
# [1] = tested on: Human rhinovirus sp.; experiment: Compound was tested for minimum inhibitory concentration against human rhinovirus 14 (HRV14); format: functional
# [2] = tested on: Nucleic Acid; experiment: Compound was tested for the inhibition of Rev-RBE RNA complex formation; format: functional
SMILES,MIC [1] [µM],MIC [2] [µM]
Cc1cc(CCCCCOc2ccc(C3=NC[C@@H](C)O3)cc2)on1,0.6,–
CN[C@@H]1[C@@H](O)[C@@H](O[C@@H]2[C@@H](O)[C@H](O[C@H]3OC(CN)=CC[C@H]3N)[C@@H](N)C[C@H]2N)OC[C@]1(C)O,–,> 100
NC[C@@H]1O[C@H](O[C@H]2[C@@H](O)[C@H](O[C@@H]3[C@@H](O)[C@H](N)C[C@H](N)[C@H]3O[C@H]3O[C@H](CN)[C@@H](O)[C@H](O)[C@H]3N)O[C@@H]2CO)[C@H](N)[C@@H](O)[C@@H]1O,–,1
CNC1C(O)C(OC2C(N)CC(N)C(OC3OC(CN)CCC3N)C2O)OCC1(C)O (stereo not drawn),–,100
Cc1cc(CCCCCOc2ccc(C3=NCCO3)cc2)on1,0.5,–
NC[C@H]1O[C@H](O[C@H]2[C@H](O)[C@@H](O)[C@H](N)C[C@@H]2N)[C@H](N)[C@@H](O)[C@@H]1O,–,> 100
NC[C@@H]1O[C@H](O[C@H]2[C@@H](O)[C@H](O[C@@H]3[C@@H](O)[C@H](N)C[C@H](N)[C@H]3O[C@H]3O[C@H](CO)[C@@H](O)C[C@H]3N)O[C@@H]2CO)[C@H](N)[C@@H](O)[C@@H]1O[C@H]1O[C@H](CO)[C@@H](O)[C@H](O)[C@@H]1O,–,10
NC[C@@H]1O[C@H](O[C@H]2[C@@H](O)[C@H](O[C@@H]3[C@@H](O)[C@H](N)C[C@H](N)[C@H]3O[C@H]3O[C@H](CO)[C@@H](O)[C@H](O)[C@H]3N)O[C@@H]2CO)[C@H](N)[C@@H](O)[C@@H]1O,–,> 100
CC[C@@H]1CN=C(c2ccc(OCCCCCCCc3cc(C)no3)cc2)O1,0.02,–
Cc1cc(CCCCCCCOc2ccc(C3=NC[C@H](C)O3)cc2)on1,0.4,–
NC[C@@H]1O[C@@H](O[C@H]2[C@H](O)[C@@H](O[C@H]3O[C@H](CO)[C@@H](O)[C@H](N)[C@H]3O)[C@H](N)C[C@@H]2N)[C@@H](O)[C@H](O)[C@H]1O,–,> 100
NC[C@H]1O[C@H](O[C@H]2[C@H](O)[C@@H](O[C@H]3O[C@H](CO)[C@@H](O)[C@H](N)[C@H]3O)[C@H](N)C[C@@H]2N)[C@H](N)C[C@@H]1O,–,10
Cc1cc(CCCCCCCOc2ccc(C3=NC[C@@H](C)O3)cc2Cl)on1,0.2,–
Cc1cc(CCCCCCCOc2ccc(C3=NC[C@@H](C)O3)cc2)on1,0.03,–
Cc1cc(CCCCCOc2ccc(C3=NCCO3)cc2Cl)on1,2.4,–
NC[C@H]1O[C@H](O[C@H]2[C@H](O[C@@H]3O[C@H](CO)[C@@H](O)[C@H]3O)[C@@H](O)[C@H](N)C[C@@H]2N)[C@H](N)[C@@H](O)[C@@H]1O,–,100
NC[C@H]1O[C@H](O[C@H]2[C@H](O)[C@@H](O[C@H]3O[C@H](CO)[C@@H](O)[C@H](N)[C@H]3O)[C@H](N)C[C@@H]2N)[C@H](N)[C@@H](O)[C@@H]1O,–,100
Cc1cc(CCCCCCCOc2ccc(C3=NCCO3)cc2)on1 [DISOXARIL],0.6,–
